Laboratory results reported in US20250197420A1, “MACROCYCLIC COMPOUNDS, COMPOSITIONS, AND METHODS OF USING THEREOF” (Sionna Therapeutics Inc., priority 2022, published 2025).

What was measured:
[1] = test system: Primary human bronchial epithelial cells from a ΔF508 homozygous CF donor (CF-HBE cells); assay: TECC24 recording of CFTR-mediated transepithelial chloride transport, AUC fold over benchmark VX-809 @10 μM; type: cell-based; conditions: 48 hours incubation, AUC of forskolin-stimulated IEQ
In short: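 CF-HBE cells on inserts were treated with compound for 48 h at 36.5 °C, then recorded in current-clamp with benzamil 10 μM, forskolin 10 μM, and finally CFTR inhibitor-172 20 μM in pH 7.4 Hepes saline. Equivalent Cl− current AUC between forskolin and inhibitor addition is expressed as a ratio to VX-809 AUC: A <3, B 3–6, C 6–20.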

[2] = biological target: T1, Purified recombinant NBD1 (Homo sapiens, UniProt P13569); assay: Aggregation analysis using differential static light scattering (DSLS): thermal stability of NBD1; type: binding; conditions: NBD1 0.2 mg/ml; Tagg of compound well minus average Tagg of DMSO control wells
T1 construct: Purified recombinant NBD1 was produced using previously described methods; made in house
In short: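 Recombinant NBD1 at 0.2 mg/ml in Tris/NaCl/MgCl2 buffer with 2 mM ATP, 2 mM DTT, 1% glycerol, pH 7.6, was incubated with compound and heated at 1 °C/min to 70 °C while static light scattering was monitored. Tagg was taken from the curve inflection point and reported as ΔTagg relative to DMSO controls.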

T1 sequence (P13569 423-646 limits assumed): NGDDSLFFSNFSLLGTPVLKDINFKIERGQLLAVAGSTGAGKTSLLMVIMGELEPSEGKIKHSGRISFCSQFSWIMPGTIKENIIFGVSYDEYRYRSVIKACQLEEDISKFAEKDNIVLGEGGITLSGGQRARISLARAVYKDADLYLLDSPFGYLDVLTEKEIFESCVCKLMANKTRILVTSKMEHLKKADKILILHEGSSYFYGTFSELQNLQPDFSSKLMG

Row | SMILES | TECC (test agent AUC divided by VX-809 AUC) [1] | DSLS (ΔTagg) [2]
1 | CC(Cc1cccc(C2(C)CCCCC(C)(C)NC(=O)OCc3c(c(F)cc4[nH]ccc34)Oc3ccc(F)c(c3)-c3nc2nn3C)c1)C(=O)O (single isomer, unassigned) [Compound 101B, 3-[3-(23,29-difluoro-3,6,11,11-tetramethyl-13-oxo-14,25-dioxa-3,4,12,20,31-pentazapentacyclo[24.3.1.12,5.016,24.017,21]-hentriaconta-1(30),2(31),4,16,18,21,23,26,28-nonaen-6-yl)phenyl]-2-methyl-propanoic acid] | A (a TECC value less than 3 is marked “A”) | A (an ΔTagg value less than or equal to 5 °C is marked “A”)
2 | Cn1nc2nc1-c1cc(ccc1F)Oc1c(F)cc3[nH]ccc3c1COC(=O)NC(C)(C)CCCCC2c1cccc(CCC(=O)O)c1 (single isomer, unassigned) [Compound 97B, 3-[3-(23,29-difluoro-3,11,11-trimethyl-13-oxo-14,25-dioxa-3,4,12,20,31-pentazapentacyclo-[24.3.1.12,5.016,24.017,21]hentriaconta-1(30),2(31),4,16,18,21,23,26,28-nonaen-6-yl)phenyl]propanoic acid] | B (a value between 3 and 6 is marked “B”) | C (a value greater than 10 °C and less than or equal to 25 °C is marked “C”)
3 | CN1CC(C)(C)CCCC(C)(c2cccc(CC(=O)O)c2)c2cnc([nH]2)-c2cc(ccc2F)Oc2c(F)cc3[nH]ccc3c2CCC1=O (single isomer, unassigned) [Compound 65A, 2-[3-(23,29-difluoro-6,10,10,12-tetramethyl-13-oxo-25-oxa-3,12,20,31-tetrazapentacyclo-[24.3.1.12,5.016,24.017,21]hentriaconta-1(30),2,4,16,18,21,23,26,28-nonaen-6-yl)phenyl]acetic acid] | A (a TECC value less than 3 is marked “A”) | A (an ΔTagg value less than or equal to 5 °C is marked “A”)
4 | CC1(C)CCC(C)(c2cccc(CCC(=O)O)c2)c2cnc([nH]2)-c2cc(ccc2F)Oc2c(F)cc3[nH]ccc3c2CCNC(=O)OC1 (stereo not drawn) [Compound 45, 3-[3-(23,29-Difluoro-6,9,9-trimethyl-12-oxo-11,25-dioxa-3,13,20,31-tetrazapentacyclo[24.3.1.12,5.016,24.017,21]hentriaconta-1(30),2,4,16(24),17(21),18,22,26,28-nonaen-6-yl)phenyl]propanoic acid] | B (a value between 3 and 6 is marked “B”) | C (a value greater than 10 °C and less than or equal to 25 °C is marked “C”)
5 | [2H]C([2H])([2H])n1nc2nc1-c1cc(ccc1F)Oc1c(F)cc3[nH]ccc3c1CCC(=O)N(C)CC(C)(C)CCCC2(C)c1cccc(CCC(=O)O)c1 (single isomer, unassigned) [Compound 77B, 3-[3-[23,29-difluoro-6,10,10,12-tetramethyl-13-oxo-3-(trideuteriomethyl)-25-oxa-3,4,12,20,31-pentazapentacyclo[24.3.1.12,5.016,24.017,21]-hentriaconta-1(30),2(31),4,16,18,21,23,26,28-nonaen-6-yl]phenyl]propanoic acid] | A (a TECC value less than 3 is marked “A”) | A (an ΔTagg value less than or equal to 5 °C is marked “A”)
6 | CN1CC(C)(C)CCCC(c2cccc(CCC(=O)O)c2F)c2cnc([nH]2)-c2cc(ccc2F)Oc2c(F)cc3[nH]ccc3c2CCC1=O (stereo not drawn) [Compound 28, 3-[3-(23,29-Difluoro-10,10,12-trimethyl-13-oxo-25-oxa-3,12,20,31-tetrazapentacyclo[24.3.1.12,5.016,24.017,21]hentriaconta-1(30),2,4,16,18,21,23,26,28-nonaen-6-yl)-2-fluoro-phenyl]propanoic acid] | A (a TECC value less than 3 is marked “A”) | C (a value greater than 10 °C and less than or equal to 25 °C is marked “C”)
7 | CC1(C)CCCCC(C)(c2cccc(CCC(=O)O)c2)c2cnc([nH]2)-c2cc(ccc2F)Oc2c(F)cc3[nH]ccc3c2COC(=O)N1 (stereo not drawn) [Compound 88, 3-[3-(23,29-Difluoro-6,11,11-trimethyl-13-oxo-14,25-dioxa-3,12,20,31-tetrazapentacyclo[24.3.1.12,5.016,24.017,21]hentriaconta-1(30),2,4,16,18,21,23,26,28-nonaen-6-yl)phenyl]propanoic acid] | B (a value between 3 and 6 is marked “B”) | C (a value greater than 10 °C and less than or equal to 25 °C is marked “C”)
8 | CN1CC(C)(C)CCCC(C)(c2cccc(CCc3nnn[nH]3)c2)c2cnc([nH]2)-c2cc(ccc2F)Oc2c(F)cc3[nH]ccc3c2CCC1=O (stereo not drawn) [Compound 52, 23,29-Difluoro-6,10,10,12-tetramethyl-6-[3-[2-(1H-tetrazol-5-yl)ethyl]phenyl]-25-oxa-3,12,20,31-tetrazapentacyclo[24.3.1.12,5.016,24.017,21]-hentriaconta-1(30),2,4,16,18,21,23,26,28-nonaen-13-one] | A (a TECC value less than 3 is marked “A”) | C (a value greater than 10 °C and less than or equal to 25 °C is marked “C”)
9 | Cn1nc2nc1-c1cc(ccc1F)Oc1c(F)cc3[nH]ccc3c1CCC(=O)NS(=O)(=O)CCCCC2(C)c1ccccc1 (stereo not drawn) [Compound 115] | A (a TECC value less than 3 is marked “A”) | C (a value greater than 10 °C and less than or equal to 25 °C is marked “C”)
10 | CN1CC(C)(C)CCCC(C)(c2cccc(CCC(=O)O)c2)c2cnc([nH]2)-c2cc(ccc2F)Oc2c(F)cc3[nH]cnc3c2CCC1=O (single isomer, unassigned) [Compound 72B, 3-[3-(23,29-difluoro-6,10,10,12-tetramethyl-13-oxo-25-oxa-3,12,18,20,31-pentazapentacyclo-[24.3.1.12,5.016,24.017,21]hentriaconta-1(30),2,4,16,18,21,23,26,28-nonaen-6-yl)phenyl]propanoic acid] | A (a TECC value less than 3 is marked “A”) | B (a value above 5 °C and less than or equal to 10 °C is marked “B”)
11 | CC1(C)CCCC(C)(c2cccc(CCC(=O)O)c2)c2cnc([nH]2)-c2cc(ccc2F)Oc2c(F)cc3[nH]ccc3c2CNC(=O)OC1 (stereo not drawn) [Compound 89, 3-[3-(23,29-Difluoro-6,10,10-trimethyl-13-oxo-12,25-dioxa-3,14,20,31-tetrazapentacyclo[24.3.1.12,5.016,24.017,21]hentriaconta-1(30),2,4,16,18,21,23,26,28-nonaen-6-yl)phenyl]propanoic acid] | B (a value between 3 and 6 is marked “B”) | C (a value greater than 10 °C and less than or equal to 25 °C is marked “C”)
12 | CN1CC(C)(C)CCCC(C)(c2cccc(CCC(=O)O)c2)c2cnc([nH]2)-c2cc(ccc2F)Oc2c(F)c(F)c3[nH]ccc3c2CCC1=O (stereo not drawn) [Compound 70, 3-[3-(22,23,29-Trifluoro-6,10,10,12-tetramethyl-13-oxo-25-oxa-3,12,20,31-tetrazapentacyclo[24.3.1.12,5.016,24.017,21]hentriaconta-1(30),2,4,16,18,21,23,26,28-nonaen-6-yl)phenyl]propanoic acid] | A (a TECC value less than 3 is marked “A”) | C (a value greater than 10 °C and less than or equal to 25 °C is marked “C”)
13 | CN1CC(C)(C)CCCC(C)(c2ccccc2)c2cnc([nH]2)-c2cc(ccc2F)Oc2c(F)c(F)c3[nH]ccc3c2CCC1=O (stereo not drawn) [Compound 71, 22,23,29-Trifluoro-6,10,10,12-tetramethyl-6-phenyl-25-oxa-3,12,20,31-tetrazapentacyclo[24.3.1.12,5.016,24.017,21]hentriaconta-1(30),2,4,16,18,21,23,26,28-nonaen-13-one] | A (a TECC value less than 3 is marked “A”) | A (an ΔTagg value less than or equal to 5 °C is marked “A”)
14 | CC1(C)CCCC(C)(c2cccc(CCC(=O)O)c2)c2nnc([nH]2)-c2cc(ccc2F)Oc2c(F)cc3[nH]ccc3c2COC(=O)NC1 (stereo not drawn) [Compound 90, 3-[3-(23,29-Difluoro-6,10,10-trimethyl-13-oxo-14,25-dioxa-3,4,12,20,31-pentazapentacyclo[24.3.1.12,5.016,24.017,21]hentriaconta-1(30),2,4,16(24),17(21),18,22,26,28-nonaen-6-yl)phenyl]propanoic acid] | B (a value between 3 and 6 is marked “B”) | C (a value greater than 10 °C and less than or equal to 25 °C is marked “C”)
15 | CN1CC(C)(C)CCC[C@](C)(c2cccc(CC(C)(C)C(=O)O)c2)c2nc(n(C)n2)-c2cc(ccn2)Oc2c(F)cc3[nH]ccc3c2CCC1=O [Compound 120, 3-[3-[(6R)-23-fluoro-3,6,10,10,12-pentamethyl-13-oxo-25-oxa-3,4,12,20,29,31-hexazapentacyclo[24.3.1.12,5.016,24.017,21]hentriaconta-1(30),2(31),4,16,18,21,23,26,28-nonaen-6-yl]phenyl]-2,2-dimethyl-propanoic acid] | A (a TECC value less than 3 is marked “A”) | B (a value above 5 °C and less than or equal to 10 °C is marked “B”)
